Laboratory results published in ChEMBL document CHEMBL1201862, “PubChem BioAssay data set” (2004).
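A five-concentration, 48-hour dose response in 96-well plates underlies each endpoint, interpolated linearly between surrounding concentrations. GI50: concentration for 50% inhibition of growth.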 Active and inactive are the calls of the source. Cut-off read from the data, not from the text of the source: active = GI50 up to about 1.1 µM and inactive = higher.

How the values were obtained:
Assay in all cases: NCI anticancer screen, dose series, 48 h
[1] = tested on: EKVX
[2] = tested on: M14
[3] = tested on: MDA-N
[4] = tested on: PC-3
[5] = tested on: SR
[6] = tested on: COLO 205
[7] = tested on: T47D
[8] = tested on: MDA-MB-435
[9] = tested on: Hs-578T
[10] = tested on: SNB-19
[11] = tested on: SK-MEL-5
[12] = tested on: OVCAR-4
[13] = tested on: MDA-MB-231
[14] = tested on: CCRF-CEM
[15] = tested on: MOLT-4
[16] = tested on: CAKI-1
[17] = tested on: RPMI-8226
[18] = tested on: HL-60
[19] = tested on: HCT-116
[20] = tested on: U-251
[21] = tested on: SK-OV-3
[22] = tested on: RXF 393
[23] = tested on: HOP-62
[24] = tested on: HOP-92
[25] = tested on: LOX IMVI
[26] = tested on: UACC-62
[27] = tested on: UO-31
[28] = tested on: SF-295
[29] = tested on: NCI-H460
[30] = tested on: ACHN
[31] = tested on: HT-29
[32] = tested on: NCI/ADR-RES
[33] = tested on: SF-268
[34] = tested on: TK-10
[35] = tested on: 786-0
[36] = tested on: SF-539
[37] = tested on: KM12
[38] = tested on: HCC 2998
[39] = tested on: Malme-3M
[40] = tested on: A549
[41] = tested on: SW-620
[42] = tested on: K562
[43] = tested on: NCI-H23
[44] = tested on: OVCAR-3
[45] = tested on: MCF7
[46] = tested on: SK-MEL-28
[47] = tested on: UACC-257
[48] = tested on: DU-145
[49] = tested on: NCI-H522
[50] = tested on: SK-MEL-2
[51] = tested on: BT-549
[52] = tested on: NCI-H226
[53] = tested on: SNB-75
[54] = tested on: IGROV-1
[55] = tested on: OVCAR-5
[56] = tested on: HCT-15
[57] = tested on: OVCAR-8
[58] = tested on: SN12C

Measured: GI50

N=C(N)NS(=O)(=O)c1ccc(NNc2c3ccccc3nc3ccccc23)cc1
active: [5] 0.596 µM | [15] 0.472 µM | [52] 1.08 µM
inactive: [1] 10.6 µM | [2] 12.8 µM | [3] 13.2 µM | [4] 8.75 µM | [6] 12.6 µM | [7] 5.73 µM | [8] 16.2 µM | [9] 23.9 µM | [10] 8.34 µM | [11] 9.31 µM | [12] 4.85 µM | [13] 15.7 µM | [14] 1.23 µM | [16] 15.8 µM | [17] 12.6 µM | [18] 4.49 µM | [19] 8.34 µM | [20] 5.97 µM | [21] 11.1 µM | [22] 12.9 µM | [23] 6.87 µM | [24] 2.96 µM | [25] 3.59 µM | [26] 11.9 µM | [27] 13.6 µM | [28] 13.8 µM | [29] 2.7 µM | [30] 3.63 µM | [31] 7.28 µM | [32] 26.4 µM | [33] 10.4 µM | [34] 16.4 µM | [35] 10.1 µM | [36] 14.3 µM | [37] 11.2 µM | [38] 12.4 µM | [39] 17.3 µM | [40] 9.1 µM | [41] 9.31 µM | [42] 6.04 µM | [43] 9.29 µM | [44] 4.04 µM | [45] 2.48 µM | [46] 13.8 µM | [47] 20 µM | [48] 2.58 µM | [49] 3.86 µM | [50] 18.2 µM | [51] 1.18 µM | [53] 16.5 µM | [54] 15.2 µM | [55] 17.6 µM | [57] 6.38 µM | [58] 4.23 µM
18.6 µM: [56]
